Measurements as given in paper PMC3359661, “FK228 Analogues Induce Fetal Hemoglobin in Human Erythroid Progenitors” (Anemia, 2012).

Legend:
Type in all cases: cell-based, human
[1] = test system: HbF-positive primary erythroid progenitors; assay: Anti-HbF FITC immunostaining of primary erythroid progenitors; conditions: anti-HbF FITC / DAPI, 500 cells counted; 15.5% HbF-positive at baseline in untreated cells
Protocol: The two-phase liquid culture system was established as previously published by Fibach et al. using buffy coat mononuclear cells, purchased from Carter Blood Care (Fort Worth, TX) in accordance with the guidelines of the Institutional Review Board at the University of Texas at Dallas. During phase 1, cells were grown in IMDM medium with 30% fetal bovine serum and 50 ng/mL each of the granulocyte-monocyte colony-stimulating factor, Interleukin-3, and stem cell factor. Subsequently, phase 2 was initiated on day 7 with the addition of erythropoietin (2 U/mL) and stem cell factor (50 ng/mL). The cells were treated on Day 11 with the different test compounds and harvested on Day 14 (72 hr incubation).
Primary erythroid progenitor cytospin cell preparations were fixed with 4% paraformaldehyde in phosphate buffered saline for 15 min, washed, and then permeabilized with 0.3% Trition-100 solution for 10 min. Cells were then blocked in a 5% bovine serum albumin solution and immunostaining performed at 4°C overnight with anti-HbF fluorescein isothiocyanate (FITC) conjugated antibody (Bethyl Laboratories Inc., TX). Cell nuclei were stained with mounting medium containing 4′,6-diamidino-2-phenylindole (DAPI; Santa Cruz Biotechnology, CA). Primary cells were photographed with an Olympus BX 51 phase contrast epifluorescent microscope equipped with Hoffman Modulation optics. Phase-contrast images were recorded with a CCD camera (1/100 sec exposure) and fluorescence images were photographed through 485/520 nm emission filter. The percent of HbF positive cells was calculated by dividing the number of FITC positive cells by total cells (DAPI positive).
Figure 3 JMA33 and JMA26 induce HbF in primary erythroid cells. (a) Day 11 erythroid progenitors were treated for 48 hr with the controls agents and the FK228 analogues shown and then analyzed by RT-qPCR. Untreated cells (UT) were used as a control and normalized to one. Data were calculated as the means ± SEM. […] The images generated were used to count 500 DAPI positive cells and the %FITC positive cells were calculated accordingly.

[2] = test system: HDAC activity in HeLa cells; assay: HDAC Fluorescent Activity Assay (Fluor de Lys) in HeLa cells; conditions: 300 nM; HeLa cells, Fluor de Lys substrate; maximal inhibition
Protocol: (§1) The HDAC Fluorescent Activity Assay (Enzo Life Science, Farmingdale, NY) was used to measure HDAC inhibition in HeLa cells in a 96-well format using Trichostatin A as the positive control per the manufacturer's protocol. This assay is based on the Fluor de Lys (Fluorogenic Histone Deacetylase Lysyl (FDL)) Substrate/Developer. The procedure was as follows: the test compounds FK228, JMA26, and JMA33 were added to HeLa cells along with the FDL substrate to allow intracellular drug activation then fluorescence levels were read on the fluorometer at 440 nm (CytoFluor II, PerSeptive Biosystems, Farmingdale, NY). The drug concentrations tested were based on the amount required for HbF induction in primary cells. Data was reported as the mean ± standard deviation (SD) for at least five replicates.
(§2) To ascertain the mechanism of HbF induction by the lead compounds, we performed an in vivo assay to investigate the ability of JMA26 and JMA33 to act as HDAC inhibitors. The HDAC Fluorescent Activity Assay designed to measure HDAC activity in HeLa cells was completed in a 96-well format. The assay is based on the fact that the Fluor de Lys substrate is deacetylated by HDACs to generate a fluorescent readout. TSA (0.5 to 1000 nM) was used to establish the assay in HeLa cells, showing about 80% HDAC inhibition in our system (Figure 4(a)).
(§3) Figure 4 HDAC inhibition assay. The HDAC Fluorescent Activity Assay was used to measure HDAC inhibition in HeLa cells (See Section 2). Compounds and FDL substrate were added to HeLa cells to allow drug activation in vivo then fluorescence levels were quantified on the fluorometer at 440 nm. (a) Trichostatin A (TSA) was used as the control. (b) Inhibition studies were conducted for FK228 showing maximal HDAC inhibition at the 300 nM concentration. (c) Similar studies were performed for JMA33 and JMA26. The data are reported as the means ± SEM.

HeLa cells = assay: as above; conditions: 300 nM
Protocol: as §1, §2, §3

FK228
increase in HbF-positive cells [1]: 3.5 fold | HDAC inhibition [2]: about 85% | cell toxicity (HeLa cells): marked cell toxicity
